Experimental data: ChEMBL document CHEMBL4028801, “A multifactorial approach to hepatobiliary transporter assessment enables improved therapeutic compound development” (Toxicol Sci, 2013)
Each block holds one compound with its values, some of them ahead of it.

Columns and labels:
Bile salt export pump = Bile salt export pump (Homo sapiens, UniProt O95342); assay: Inhibition of human BSEP overexpressed in Sf9 cell membrane vesicles assessed as uptake of [3H]-taurocholate in presence of ATP measured after 15 to 20 mins by membrane vesicle transport assay; type: ADME, cell-based
Chain of Bile salt export pump (O95342 whole entry): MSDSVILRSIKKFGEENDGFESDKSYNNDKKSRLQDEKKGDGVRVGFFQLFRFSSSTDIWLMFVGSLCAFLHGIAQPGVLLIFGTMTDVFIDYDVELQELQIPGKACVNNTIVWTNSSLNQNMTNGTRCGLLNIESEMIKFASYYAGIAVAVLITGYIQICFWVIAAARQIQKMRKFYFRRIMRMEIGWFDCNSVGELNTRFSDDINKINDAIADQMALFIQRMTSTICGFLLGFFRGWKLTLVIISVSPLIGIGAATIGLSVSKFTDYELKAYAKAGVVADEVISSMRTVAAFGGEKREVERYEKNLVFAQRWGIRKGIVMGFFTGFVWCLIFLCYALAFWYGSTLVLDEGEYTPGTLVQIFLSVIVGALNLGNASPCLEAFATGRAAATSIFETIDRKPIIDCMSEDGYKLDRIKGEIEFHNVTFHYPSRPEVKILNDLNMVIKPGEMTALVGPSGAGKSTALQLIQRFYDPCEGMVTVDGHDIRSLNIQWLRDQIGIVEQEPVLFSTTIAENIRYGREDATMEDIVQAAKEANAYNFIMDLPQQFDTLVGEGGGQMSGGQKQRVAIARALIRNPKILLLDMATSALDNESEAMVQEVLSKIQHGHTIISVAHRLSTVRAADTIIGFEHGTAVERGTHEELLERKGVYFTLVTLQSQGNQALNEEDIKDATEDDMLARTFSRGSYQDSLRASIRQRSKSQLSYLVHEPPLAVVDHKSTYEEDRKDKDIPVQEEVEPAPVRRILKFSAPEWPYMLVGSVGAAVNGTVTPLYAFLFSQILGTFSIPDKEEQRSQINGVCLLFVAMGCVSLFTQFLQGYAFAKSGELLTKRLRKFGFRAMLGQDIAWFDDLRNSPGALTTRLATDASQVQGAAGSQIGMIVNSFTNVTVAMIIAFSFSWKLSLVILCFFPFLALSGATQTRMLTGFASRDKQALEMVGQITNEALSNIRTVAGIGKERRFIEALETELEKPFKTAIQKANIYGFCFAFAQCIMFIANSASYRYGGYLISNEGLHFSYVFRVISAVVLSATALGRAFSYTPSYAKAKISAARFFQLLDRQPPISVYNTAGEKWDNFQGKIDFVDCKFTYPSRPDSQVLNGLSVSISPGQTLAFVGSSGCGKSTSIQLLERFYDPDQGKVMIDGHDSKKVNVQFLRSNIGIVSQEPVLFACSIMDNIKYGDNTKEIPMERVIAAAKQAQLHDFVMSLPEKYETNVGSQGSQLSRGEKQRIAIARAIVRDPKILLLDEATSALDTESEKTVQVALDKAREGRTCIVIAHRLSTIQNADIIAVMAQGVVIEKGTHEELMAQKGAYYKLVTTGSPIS

[1] = target: T1, ATP-binding cassette sub-family C member 4 (Homo sapiens, UniProt O15439); assay: Inhibition of human MRP4 overexpressed in Sf9 cell membrane vesicles assessed as uptake of [3H]-estradiol-17beta-D-glucuronide in presence of ATP and GSH measured after 20 mins by membrane vesicle transport assay; type: ADME, cell-based
T1 sequence (O15439 whole entry): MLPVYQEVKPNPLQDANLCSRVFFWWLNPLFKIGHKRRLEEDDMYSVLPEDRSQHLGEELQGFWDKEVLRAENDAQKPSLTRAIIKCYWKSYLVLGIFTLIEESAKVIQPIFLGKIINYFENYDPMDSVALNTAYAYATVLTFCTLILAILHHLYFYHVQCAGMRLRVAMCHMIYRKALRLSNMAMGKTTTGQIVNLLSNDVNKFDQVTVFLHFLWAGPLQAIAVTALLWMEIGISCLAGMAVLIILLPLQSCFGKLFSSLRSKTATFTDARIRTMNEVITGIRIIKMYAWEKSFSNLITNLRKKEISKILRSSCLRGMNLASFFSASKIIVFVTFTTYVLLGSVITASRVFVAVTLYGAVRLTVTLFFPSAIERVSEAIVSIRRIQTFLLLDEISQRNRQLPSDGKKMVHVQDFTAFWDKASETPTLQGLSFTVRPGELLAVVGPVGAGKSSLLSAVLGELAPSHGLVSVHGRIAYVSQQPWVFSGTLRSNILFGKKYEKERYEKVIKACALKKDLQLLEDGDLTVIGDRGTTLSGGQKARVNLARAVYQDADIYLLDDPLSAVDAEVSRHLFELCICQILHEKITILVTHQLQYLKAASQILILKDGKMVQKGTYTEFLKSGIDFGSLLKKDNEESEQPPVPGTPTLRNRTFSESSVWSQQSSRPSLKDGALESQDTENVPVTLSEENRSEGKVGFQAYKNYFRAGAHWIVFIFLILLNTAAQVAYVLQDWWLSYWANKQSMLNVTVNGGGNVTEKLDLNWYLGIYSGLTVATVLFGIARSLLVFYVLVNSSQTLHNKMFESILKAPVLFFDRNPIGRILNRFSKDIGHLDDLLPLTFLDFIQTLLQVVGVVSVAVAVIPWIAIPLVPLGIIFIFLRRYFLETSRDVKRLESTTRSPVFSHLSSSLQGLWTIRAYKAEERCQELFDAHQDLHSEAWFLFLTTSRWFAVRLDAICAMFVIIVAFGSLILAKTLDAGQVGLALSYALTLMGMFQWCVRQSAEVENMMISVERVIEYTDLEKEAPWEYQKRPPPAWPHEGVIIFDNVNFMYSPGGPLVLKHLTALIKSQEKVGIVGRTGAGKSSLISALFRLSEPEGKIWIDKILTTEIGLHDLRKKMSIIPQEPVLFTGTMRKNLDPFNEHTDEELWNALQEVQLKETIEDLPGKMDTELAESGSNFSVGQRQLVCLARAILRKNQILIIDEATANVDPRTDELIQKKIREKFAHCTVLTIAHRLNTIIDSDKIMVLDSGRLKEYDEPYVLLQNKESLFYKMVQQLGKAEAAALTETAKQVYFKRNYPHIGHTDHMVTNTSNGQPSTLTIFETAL

[2] = AUC in human at 25 to 50 mg, po QD after 24 hrs; type: ADME, organism-based; settings: in vivo
[3] = Drug concentration at steady state in human at 25 to 50 mg, po QD after 24 hrs; type: ADME, organism-based; settings: in vivo, read-out: Css
[4] = target: ATP-binding cassette sub-family C member 3 (Homo sapiens, UniProt O15438); assay: Inhibition of human MRP3 overexpressed in Sf9 insect cell membrane vesicles assessed as uptake of [3H]-estradiol-17beta-D-glucuronide in presence of ATP and GSH measured after 10 mins by membrane vesicle transport assay; type: ADME, cell-based
Chain of ATP-binding cassette sub-family C member 3 (O15438 whole entry): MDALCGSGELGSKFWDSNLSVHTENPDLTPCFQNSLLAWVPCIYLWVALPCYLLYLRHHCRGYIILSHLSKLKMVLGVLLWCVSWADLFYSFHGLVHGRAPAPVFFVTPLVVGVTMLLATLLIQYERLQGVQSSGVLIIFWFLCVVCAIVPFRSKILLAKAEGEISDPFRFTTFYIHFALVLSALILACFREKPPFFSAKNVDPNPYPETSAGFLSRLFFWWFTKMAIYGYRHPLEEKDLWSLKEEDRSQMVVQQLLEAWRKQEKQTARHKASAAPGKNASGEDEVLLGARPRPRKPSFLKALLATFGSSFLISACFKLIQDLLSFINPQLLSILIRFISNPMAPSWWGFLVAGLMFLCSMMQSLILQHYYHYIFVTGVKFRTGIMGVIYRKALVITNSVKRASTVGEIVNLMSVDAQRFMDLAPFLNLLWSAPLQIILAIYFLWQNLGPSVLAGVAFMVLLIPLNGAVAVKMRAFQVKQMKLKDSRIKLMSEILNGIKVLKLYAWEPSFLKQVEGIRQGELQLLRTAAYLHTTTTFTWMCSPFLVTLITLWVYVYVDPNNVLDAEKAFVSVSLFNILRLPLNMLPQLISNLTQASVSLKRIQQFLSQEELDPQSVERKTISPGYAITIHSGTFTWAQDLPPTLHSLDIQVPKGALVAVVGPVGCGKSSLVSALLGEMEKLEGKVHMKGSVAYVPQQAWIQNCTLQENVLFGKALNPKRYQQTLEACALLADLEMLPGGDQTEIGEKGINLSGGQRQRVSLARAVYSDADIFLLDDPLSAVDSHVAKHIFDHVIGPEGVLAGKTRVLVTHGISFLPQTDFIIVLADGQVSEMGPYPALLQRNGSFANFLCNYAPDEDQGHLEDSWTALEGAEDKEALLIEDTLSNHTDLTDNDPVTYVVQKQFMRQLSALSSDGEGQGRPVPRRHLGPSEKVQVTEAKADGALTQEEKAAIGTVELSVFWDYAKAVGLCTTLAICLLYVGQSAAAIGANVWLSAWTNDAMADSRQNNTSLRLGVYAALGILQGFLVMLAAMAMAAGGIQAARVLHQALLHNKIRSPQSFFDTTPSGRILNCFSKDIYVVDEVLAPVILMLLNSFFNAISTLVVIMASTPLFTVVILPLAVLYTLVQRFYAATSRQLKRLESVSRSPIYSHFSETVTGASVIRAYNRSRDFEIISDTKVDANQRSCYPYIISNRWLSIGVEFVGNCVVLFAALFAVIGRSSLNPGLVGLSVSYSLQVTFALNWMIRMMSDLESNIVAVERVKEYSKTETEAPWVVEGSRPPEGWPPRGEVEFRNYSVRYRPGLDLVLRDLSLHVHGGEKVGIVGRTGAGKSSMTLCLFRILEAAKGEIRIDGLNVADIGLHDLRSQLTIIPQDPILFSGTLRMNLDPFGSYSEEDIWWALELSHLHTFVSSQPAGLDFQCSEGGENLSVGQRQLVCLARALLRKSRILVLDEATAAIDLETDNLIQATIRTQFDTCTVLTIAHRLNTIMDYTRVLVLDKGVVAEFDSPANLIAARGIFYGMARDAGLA

[5] = Ratio of drug concentration at steady state in human at 25 to 50 mg, po QD after 24 hrs to IC50 for human BSEP overexpressed in Sf9 insect cells; type: ADME, organism-based; settings: in vivo
[6] = Ratio of drug concentration at steady state in human at 25 to 50 mg, po QD after 24 hrs to IC50 for human MRP4 overexpressed in Sf9 insect cells; type: ADME, organism-based; settings: in vivo
[7] = Cmax in human at 100 to 300 mg, po QD after 24 hrs; type: ADME, organism-based; settings: in vivo
[8] = Drug concentration at steady state in human at 100 to 300 mg, po QD after 24 hrs; type: ADME, organism-based; settings: in vivo, read-out: Css
[9] = Ratio of drug concentration at steady state in human at 100 to 300 mg, po QD after 24 hrs to IC50 for human MRP3 overexpressed in Sf9 insect cells; type: ADME, organism-based; settings: in vivo
[10] = Ratio of drug concentration at steady state in human at 100 to 300 mg, po QD after 24 hrs to IC50 for human MRP4 overexpressed in Sf9 insect cells; type: ADME, organism-based; settings: in vivo
[11] = Ratio of drug concentration at steady state in human at 100 to 300 mg, po QD after 24 hrs to IC50 for human BSEP overexpressed in Sf9 insect cells; type: ADME, organism-based; settings: in vivo
[12] = Ratio of drug concentration at steady state in human at 100 to 300 mg, po QD after 24 hrs to IC50 for human MRP2 overexpressed in Sf9 insect cells; type: ADME, organism-based; settings: in vivo
[13] = target: ATP-binding cassette sub-family C member 2 (Homo sapiens, UniProt Q92887); assay: Inhibition of human MRP2 overexpressed in Sf9 cell membrane vesicles assessed as uptake of [3H]-estradiol-17beta-D-glucuronide in presence of ATP and GSH measured after 20 mins by membrane vesicle transport assay
Chain of ATP-binding cassette sub-family C member 2 (Q92887 whole entry): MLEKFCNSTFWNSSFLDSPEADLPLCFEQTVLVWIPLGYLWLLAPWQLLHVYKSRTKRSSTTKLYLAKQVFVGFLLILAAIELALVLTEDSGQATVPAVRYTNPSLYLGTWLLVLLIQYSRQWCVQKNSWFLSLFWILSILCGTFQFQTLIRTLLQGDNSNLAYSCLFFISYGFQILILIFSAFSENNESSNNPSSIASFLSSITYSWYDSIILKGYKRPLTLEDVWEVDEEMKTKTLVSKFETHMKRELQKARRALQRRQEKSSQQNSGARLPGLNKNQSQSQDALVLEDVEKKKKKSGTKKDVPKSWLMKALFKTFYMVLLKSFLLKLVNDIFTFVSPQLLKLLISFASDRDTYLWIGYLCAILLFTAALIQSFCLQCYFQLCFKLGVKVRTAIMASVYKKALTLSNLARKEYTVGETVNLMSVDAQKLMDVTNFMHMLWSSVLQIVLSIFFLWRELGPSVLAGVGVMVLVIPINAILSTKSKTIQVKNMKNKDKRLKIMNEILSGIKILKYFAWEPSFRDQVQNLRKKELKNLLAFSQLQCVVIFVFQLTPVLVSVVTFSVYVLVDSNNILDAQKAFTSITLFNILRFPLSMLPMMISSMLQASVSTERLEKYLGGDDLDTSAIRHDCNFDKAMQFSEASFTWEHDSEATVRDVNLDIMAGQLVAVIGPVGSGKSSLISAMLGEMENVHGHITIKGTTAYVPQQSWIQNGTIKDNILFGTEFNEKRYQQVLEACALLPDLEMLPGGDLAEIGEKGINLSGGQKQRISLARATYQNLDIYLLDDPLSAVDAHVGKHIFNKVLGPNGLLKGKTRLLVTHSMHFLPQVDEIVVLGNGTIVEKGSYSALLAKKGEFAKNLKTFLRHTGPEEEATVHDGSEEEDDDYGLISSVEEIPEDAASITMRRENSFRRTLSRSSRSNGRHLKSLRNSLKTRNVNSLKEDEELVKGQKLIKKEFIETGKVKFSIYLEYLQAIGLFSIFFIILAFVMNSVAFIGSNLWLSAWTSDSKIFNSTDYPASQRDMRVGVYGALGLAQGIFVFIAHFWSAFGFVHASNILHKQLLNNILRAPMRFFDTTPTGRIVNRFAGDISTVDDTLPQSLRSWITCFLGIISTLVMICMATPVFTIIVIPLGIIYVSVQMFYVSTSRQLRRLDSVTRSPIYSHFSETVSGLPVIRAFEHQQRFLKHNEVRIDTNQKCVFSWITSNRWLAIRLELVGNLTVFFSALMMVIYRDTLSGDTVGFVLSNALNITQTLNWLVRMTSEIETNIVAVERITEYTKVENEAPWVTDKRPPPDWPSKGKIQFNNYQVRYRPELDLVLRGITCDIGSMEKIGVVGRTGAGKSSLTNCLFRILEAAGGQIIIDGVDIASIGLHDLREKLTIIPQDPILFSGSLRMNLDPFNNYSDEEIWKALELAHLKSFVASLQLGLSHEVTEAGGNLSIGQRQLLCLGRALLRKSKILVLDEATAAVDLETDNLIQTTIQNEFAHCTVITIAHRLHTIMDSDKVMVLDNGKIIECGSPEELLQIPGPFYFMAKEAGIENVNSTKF

[14] = Ratio of drug concentration at steady state in human at 3 mg, po after 24 hrs to IC50 for human MRP4 overexpressed in Sf9 insect cells; type: ADME, organism-based; settings: in vivo
[15] = Drug concentration at steady state in human at 3 mg, po QD after 24 hrs; type: ADME, organism-based; settings: in vivo, read-out: Css
[16] = Ratio of drug concentration at steady state in human at 3 mg, po after 24 hrs to IC50 for human BSEP overexpressed in Sf9 insect cells; type: ADME, organism-based; settings: in vivo
[17] = AUC in human at 3 mg, po QD after 24 hrs; type: ADME, organism-based; set-up: time < 24 hr, dose 3 mg, route oral; settings: in vivo
[18] = Ratio of drug concentration at steady state in human at 300 to 900 mg, po QD after 24 hrs to IC50 for human BSEP overexpressed in Sf9 insect cells; type: ADME, organism-based; settings: in vivo
[19] = AUC in human at 300 to 900 mg, po QD after 24 hrs; type: ADME, organism-based; settings: in vivo
[20] = Ratio of drug concentration at steady state in human at 300 to 900 mg, po QD after 24 hrs to IC50 for human MRP4 overexpressed in Sf9 insect cells; type: ADME, organism-based; settings: in vivo
[21] = Drug concentration at steady state in human at 300 to 900 mg, po QD after 24 hrs; type: ADME, organism-based; settings: in vivo, read-out: Css
[22] = Ratio of drug concentration at steady state in human at 300 to 900 mg, po QD after 24 hrs to IC50 for human MRP2 overexpressed in Sf9 insect cells; type: ADME, organism-based; settings: in vivo

IC50 [1]: 49 µM
AUC at 24 h [2]: 6.13 µM·h
concentration at 24 h [3]: 255 nM
IC50 [4]: > 133 µM
Ratio [6]: 0.005
Compound: COc1cc(C)c(/C=C/C(C)=C/C=C/C(C)=C/C(=O)O)c(C)c1C [ACITRETIN]
IC50 (Bile salt export pump): 38.2 µM
Ratio [5]: 0.007

IC50 [1]: 44.5 µM
Cmax [7]: 2.11 ng/mL
concentration at 24 h [8]: 88 nM
IC50 [4]: 21 µM
Ratio [9]: 0.004
Ratio [10]: 0.002
Ratio [12]: 0.008
IC50 [13]: 10.4 µM
Compound: CC(C)/N=c1\cc2n(-c3ccc(Cl)cc3)c3ccccc3nc-2cc1Nc1ccc(Cl)cc1 [CLOFAZIMINE]
Ratio [11]: 0.007

IC50 [1]: 37.9 µM
Ratio [14]: 0.002
concentration at 24 h [15]: 91 nM
IC50 [4]: > 133 µM
AUC at 24 h [17]: 2.18 µM·h
Compound: C[C@]12CCC(=O)C=C1[C@@H]1C[C@@H]1[C@H]1[C@@H]3[C@@H]4C[C@@H]4[C@@]4(CCC(=O)O4)[C@@]3(C)CC[C@@H]12 [DROSPIRENONE]
IC50 (Bile salt export pump): 16.4 µM
Ratio [16]: 0.006

IC50 [1]: 15.9 µM
AUC at 24 h [19]: 2.43 µM·h
Ratio [20]: 0.006
concentration at 24 h [21]: 101 nM
IC50 [4]: > 133 µM
Ratio [22]: 0.002
IC50 [13]: 49.8 µM
Compound: CO[C@H]1/C=C/O[C@@]2(C)Oc3c(C)c(O)c4c(c3C2=O)C2=NC3(CCN(CC(C)C)CC3)NC2=C(NC(=O)/C(C)=C\C=C\[C@H](C)[C@H](O)[C@@H](C)[C@@H](O)[C@@H](C)[C@H](OC(C)=O)[C@@H]1C)C4=O [RIFABUTIN]
Ratio [18]: 0.004
